{
  "source": "patent US11895992B2",
  "about": "“Animal models of corneal ectatic diseases, methods of producing, and methods of use thereof” (priority 2014, dated 2024)",
  "key": {"[1]": {"system": "cornea of one eye of a Wistar rat", "protocol": "A rat model of corneal keratoconus was produced as follows. An aqueous benzene composition having a concentration of 7.0 M to 8.5 M was prepared by mixing water and benzene. The composition was then sterilized by heating the solution to 100° C. for 15 minutes. The aqueous benzene composition (10 μL) was topically applied directly to the center of the cornea of one eye of a Wistar rat by micropipetting. The rat was three months old, and benzene was applied only once."}, "[2]": {"system": "cornea of the right eye of a Wistar rat", "protocol": "Rat models of corneal angiogenesis were produced as follows. Aqueous benzene compositions having the desired concentration (between 3.0 M and 7.0 M) were prepared by mixing benzene and water. The aqueous composition was then sterilized by heating to 100° C. for 15 minutes. In particular, 3.0 M, 4.0 M, 5.0 M, 6.0 M, or 7.0 M aqueous benzene compositions were prepared. Then, 10 μL of each composition was topically applied to the center of the cornea of the right eye of a Wistar rat that was two to three months old. The benzene aqueous composition was allowed to absorb into the eye, and was applied only once. Because the eye has its own natural protective mechanisms, it was not necessary to wash the eye at the end of the application."}, "[3]": {"system": "cornea of the right eye of a Wistar rat", "details": "for Observation in Treated Eye (Number of Rats) Angiogenesis / Observation in Treated Eye (Number of Rats) Corneal Keratoconus / Observation in Treated Eye (Number of Rats) No Change: 10 μL applied once, 5 rats treated", "protocol": "Rat models of corneal angiogenesis and corneal keratoconus were produced as follows. Aqueous solutions of phenol having a concentration of 0.1 M, 0.5 M, 1.0 M, 3.0 M, 5.6 M, or 8.5 M were prepared by mixing phenol and water. The solutions were then sterilized by heating to 100° C. for 15 minutes. Then, 10 μL of the sterile phenol solution was topically applied to the center of the cornea of the right eye of a Wistar rat that was two months old. Five rats were treated for each concentration of phenol tested. The phenol solution was allowed to absorb into the eye, and was applied only once. Because the eye has its own natural protective mechanisms, it was not necessary to wash the eye at the end of the application.\nHistological studies were performed after eight weeks following the application of phenol. The cornea was excised, and a piece of the corneal epithelium was stained with hematoxylin and eosin stain."}, "[4]": {"system": "cornea", "details": "compared to the amount observed when benzene is used"}, "[5]": {"details": "7.0 M to 8.5 M aqueous benzene composition, 10 μL"}},
  "note": "Read-outs that look alike come from different tables or passages of the source.",
  "data": [
    {"smiles": "c1ccccc1", "note": "[benzene]", "values": [
      {"measurement": "time at which changes in the cornea began to occur following application", "setting": "[1]; [5]", "value": "within the first week"},
      {"measurement": "time of protrusion of the cornea following application", "setting": "[1]; [5]", "value": "within the second week"},
      {"measurement": "corneal tissue changes in addition to angiogenesis", "setting": "[1]; 7.0 M to 8.5 M aqueous benzene composition, 10 μL, applied once (FIG. 3)", "value": "marked thinning, and outward protrusion"},
      {"measurement": "severity of corneal keratoconus / endophthalmitis (intraocular infection)", "setting": "[1]; 10 μL of a 9.0 M aqueous benzene composition", "value": "so severe that the rats developed endophthalmitis"},
      {"measurement": "new blood vessel formation in the cornea", "setting": "[2]; all concentrations of benzene (3.0 M to 7.0 M, 10 μL), as early as 15 days after application", "value": "new blood vessels began to form in the cornea"},
      {"measurement": "persistence of observed growth of new blood vessels from the initial application", "setting": "[2]; single application of benzene", "value": "at least four"},
      {"measurement": "amount of new blood vessels observed in the cornea, compared with 15 days", "setting": "[2]; three weeks after application", "value": "even greater"},
      {"measurement": "amount of new blood vessels observed when higher concentrations were applied", "setting": "[2]; within 15 days of application, 3.0 M to 7.0 M", "value": "increased"}
    ]},
    {"smiles": "Oc1ccccc1", "note": "[phenol]", "values": [
      {"measurement": "other anatomical or inflammatory alterations besides new corneal vessels", "setting": "[3]; 3 M phenol solution, 10 μL, three weeks (FIG. 1B)", "value": "no other anatomical or inflammatory alterations were observed"},
      {"measurement": "Observation in Treated Eye (Number of Rats) Angiogenesis", "setting": "[3]; Phenol Concentration 0.1M", "value": "1 Number of Rats"},
      {"measurement": "Observation in Treated Eye (Number of Rats) Corneal Keratoconus", "setting": "[3]; Phenol Concentration 0.1M", "value": "0 Number of Rats"},
      {"measurement": "Observation in Treated Eye (Number of Rats) No Change", "setting": "[3]; Phenol Concentration 0.1M", "value": "4 Number of Rats"},
      {"measurement": "Observation in Treated Eye (Number of Rats) Angiogenesis", "setting": "[3]; Phenol Concentration 0.5M", "value": "1 Number of Rats"},
      {"measurement": "Observation in Treated Eye (Number of Rats) Corneal Keratoconus", "setting": "[3]; Phenol Concentration 0.5M", "value": "0 Number of Rats"},
      {"measurement": "Observation in Treated Eye (Number of Rats) No Change", "setting": "[3]; Phenol Concentration 0.5M", "value": "4 Number of Rats"},
      {"measurement": "Observation in Treated Eye (Number of Rats) Angiogenesis", "setting": "[3]; Phenol Concentration 1.0M", "value": "3 Number of Rats"},
      {"measurement": "Observation in Treated Eye (Number of Rats) Corneal Keratoconus", "setting": "[3]; Phenol Concentration 1.0M", "value": "0 Number of Rats"},
      {"measurement": "Observation in Treated Eye (Number of Rats) No Change", "setting": "[3]; Phenol Concentration 1.0M", "value": "7 Number of Rats"},
      {"measurement": "Observation in Treated Eye (Number of Rats) Angiogenesis", "setting": "[3]; Phenol Concentration 3.0M", "value": "4 Number of Rats"},
      {"measurement": "Observation in Treated Eye (Number of Rats) Corneal Keratoconus", "setting": "[3]; Phenol Concentration 3.0M", "value": "2 Number of Rats"},
      {"measurement": "Observation in Treated Eye (Number of Rats) No Change", "setting": "[3]; Phenol Concentration 3.0M", "value": "1 Number of Rats"},
      {"measurement": "Observation in Treated Eye (Number of Rats) Angiogenesis", "setting": "[3]; Phenol Concentration 6.5M", "value": "4 Number of Rats"},
      {"measurement": "Observation in Treated Eye (Number of Rats) Corneal Keratoconus", "setting": "[3]; Phenol Concentration 6.5M", "value": "2 Number of Rats"},
      {"measurement": "Observation in Treated Eye (Number of Rats) No Change", "setting": "[3]; Phenol Concentration 6.5M", "value": "1 Number of Rats"},
      {"measurement": "Observation in Treated Eye (Number of Rats) Angiogenesis", "setting": "[3]; Phenol Concentration 8.5M", "value": "3 Number of Rats"},
      {"measurement": "Observation in Treated Eye (Number of Rats) Corneal Keratoconus", "setting": "[3]; Phenol Concentration 8.5M", "value": "1 Number of Rats"},
      {"measurement": "Observation in Treated Eye (Number of Rats) No Change", "setting": "[3]; Phenol Concentration 8.5M", "value": "2 Number of Rats"},
      {"measurement": "period over which blood vessel growth was observed", "setting": "[3]; after single application of aqueous phenol solution", "value": "four"},
      {"measurement": "new blood vessel formation in the cornea", "setting": "[3]; all concentrations tested (0.1 M to 8.5 M), at least one of the rats in each group, one week after application", "value": "new blood vessels began to form in the cornea"},
      {"measurement": "histology of corneal epithelium, hematoxylin and eosin stain", "setting": "[3]; eight weeks after single application of 3.0 M phenol solution (10 μl), FIG. 1C", "value": "well differentiated blood vessels can be seen under the basal membrane of the corneal epithelium"},
      {"measurement": "changes associated with corneal ectasia, particularly corneal keratoconus", "setting": "[3]; higher concentrations of phenol tested (3.0 M, 5.6 M, and 8.5 M)", "value": "observed in some of the rats"},
      {"measurement": "amount of new blood vessels observed in the cornea, compared with one week", "setting": "[3]; three weeks after application (FIG. 1B, 3 M solution)", "value": "even greater"},
      {"measurement": "fibrosis and scar tissue formation, phenol compared with benzene", "setting": "[4]", "value": "less fibrosis and scar tissue formation"}
    ]}
  ]
}
